Laboratory results reported in US11186581B2, “2-(1,3-dimethyl-2,6-dioxo-1,2,3,6-tetrahydro-7H-purin-7-yl)-N-(6-(2-hydroxyphenyl)pyridazin-3-yl)acetamide as a Wnt pathway modulator” (Agency for Science, Technology and Research, priority 2017, dated 2021).
“And” between values parts separate entries of the source, which are not always exact repeats. Identical values can stand only once. Like-named read-outs stand apart in the source and are kept apart here.

Tests used:
[1] = Plasma pharmacokinetics after single intravenous and oral dose; type: in vivo, male BALB/c mice; conditions: for concentration at 24 hr: average of two values
Procedure: The objective of this study was to investigate the plasma pharmacokinetics of Compound 1 in male BALB/c mice following a single intravenous and oral dose administration. A group of eighteen male mice were divided in to two groups as Group 1 and Group 2 with nine mice in each group.
Animals in Group 1 were administered intravenously with Compound 1 solution formulation in 7.5% NMP, 5% Solutol HS-15 and 87.5% normal Saline at a dose of 1 mg/kg.
Animals in Group 2 were administered orally with Compound 1 solution formulation in 7.5% NMP, 5% Solutol HS-15 and 87.5% normal Saline at a dose of 5 mg/kg.
Blood samples (approximately 60 μL) were collected under light isoflurane anesthesia from retro orbital plexus at predose, 0.08, 0.25, 0.5, 1, 2, 4, 8 and 24 hr (IV) and predose, 0.25, 0.5, 1, 2, 4, 6, 8 and 24 hr (PO). During each sampling point, blood samples were collected in labeled pre-chilled tubes containing K2EDTA (20% K2EDTA solution) as an anticoagulant and protease inhibitor (10 μL of 10× solution/100 μL of blood). Low temperature was maintained till storage of plasma at −70° C. Plasma samples were separated by centrifugation of whole blood and stored below −70° C. until bioanalysis. All samples were processed for analysis by protein precipitation using acetonitrile (ACN) and analyzed with fit-for-purpose LC/MS/MS method (Lower limit of quantitation (LLOQ: 1.02 ng/mL). Pharmacokinetic parameters were calculated using the non-compartmental analysis tool of Phoenix WinNonlin® (Version 6.3). The overall pharmacokinetic parameters are summarized below:
The objective of the study is to determine the plasma pharmacokinetics of Compound 1 in male BALB/c mice following a single intravenous (1 mg/kg) and oral (5 mg/kg) administration in presence of a protease inhibitor.
(§1) A group of eighteen male mice were divided in to two groups as Group 1 and Group 2 with nine mice in each group. Animals in Group 1 were administered intravenously with Compound 1 solution formulation in 7.5% NMP, 5% Solutol HS-15 and 87.5% normal Saline at a dose of 1 mg/kg. Animals in Group 2 were administered orally with Compound 1 solution formulation in 7.5% NMP, 5% Solutol HS and 87.5% normal Saline at a dose of 5 mg/kg.
The dosing volume administered was 5 mL/kg for intravenous and 10 mL/kg for oral administration.
Blood samples (approximately 60 μL) were collected from retro-orbital plexus of three mice at each time point [predose, 0.08, 0.25, 0.5, 1, 2, 4, 8 and 24 hr (IV) and predose, 0.25, 0.5, 1, 2, 4, 6, 8 and 24 hr (PO)]. During each sampling point, blood samples were collected in labeled pre-chilled tubes containing K2EDTA (20% K2EDTA solution) as an anticoagulant and protease inhibitor (10 μL of 10× solution/100 μL of blood). Low temperature was maintained till storage of plasma at −70° C. Plasma was immediately harvested from the blood by centrifugation at 4000 rpm for 10 min at 4±2° C. and stored below −70° C. until bioanalysis. Preparation of protease inhibitor solution: One tablet of sigmaFAST (Product Code: 58820) was reconstituted into 10 mL of Milli-Q water to prepare 10× solution.
Concentrations of Compound 1 in mouse plasma samples were determined by fit-for-purpose LC-MS/MS method. The sample processing and extraction procedure, chromatographic and mass spectrometric conditions are provided below:
A 25 μL of study sample (DF was applied for few samples) or spiked plasma calibration standard was added to individual pre-labeled micro-centrifuge tubes followed by 100 μL of internal standard prepared in acetonitrile (Glipizide, 500 ng/mL) was added except for blank, where 100 μL of acetonitrile was added. Samples were vortexed for 5 minutes. Samples were centrifuged for 10 minutes at a speed of 4000 rpm at 4° C. Following centrifugation, 100 μL of clear supernatant was transferred in 96 well plates and analyzed using LC-MS/MS.
Non-Compartmental-Analysis tool of Phoenix WinNonlin® (Version 6.3) was used to assess the pharmacokinetic parameters. […]

[2] = Clinical observations after intravenous and oral dose administration; type: in vivo, male BALB/c mice; conditions: after IV 1 mg/kg and PO 5 mg/kg single dose
Procedure: as §1

[3] = male, BALB/c, mouse, IV 1 mg/kg, plasma
[4] = male, BALB/c, mouse, PO 5 mg/kg, plasma

Cn1c(=O)c2c(ncn2CC(=O)Nc2ccc(-c3ccccc3O)nn2)n(C)c1=O [Compound 1, 2-(1,3-dimethyl-2,6-dioxo-1,2,3,6-tetrahydro-7H-purin-7-yl)-N-(6-(2-hydroxyphenyl)pyridazin-3-yl)acetamide]
Vss relative to normal volume of total body water (0.7 L/kg) ([1]; IV 1 mg/kg): ~2 fold | Plasma concentration, individual animals ([1]; IV 1 mg/kg, 0.08 hr, 1 mg/kg): 1220.50 ng/mL and 2541.20 ng/mL and 2233.92 ng/mL | Plasma concentration, individual animals ([1]; IV 1 mg/kg, 0.25 hr, 1 mg/kg): 1052.34 ng/mL and 1048.27 ng/mL | Plasma concentration, individual animals ([1]; IV 1 mg/kg, 0.5 hr, 1 mg/kg): 899.26 ng/mL and 894.59 ng/mL | Plasma concentration, individual animals ([1]; IV 1 mg/kg, 1 hr, 1 mg/kg): 151.52 ng/mL and 496.44 ng/mL and 268.90 ng/mL | Plasma concentration, individual animals ([1]; IV 1 mg/kg, 2 hr, 1 mg/kg): 60.16 ng/mL and 49.49 ng/mL | Plasma concentration, individual animals ([1]; IV 1 mg/kg, 4 hr, 1 mg/kg): 37.94 ng/mL and 27.10 ng/mL | Plasma concentration, individual animals ([1]; IV 1 mg/kg, 8 hr, 1 mg/kg): 6.59 ng/mL and 27.95 ng/mL and 8.94 ng/mL | Plasma concentration, individual animals ([1]; IV 1 mg/kg, 24 hr, below LLOQ considered zero, 1 mg/kg): 1.36 ng/mL and 1.10 ng/mL and 0.00 ng/mL | CL (expressed as CLf) ([1]; PO 5 mg/kg): 26.74 mL/min/kg | Vss (expressed as Vz) ([1]; PO 5 mg/kg): 7.55 L/kg | Time up to which plasma concentrations were quantifiable ([1]; PO 5 mg/kg, 2 animals out of 3, LLOQ 1.02 ng/mL): up to 24 hr | Plasma concentration, individual animals ([1]; PO 5 mg/kg, 0.25 hr, 5 mg/kg): 2450.80 ng/mL and 1426.54 ng/mL | Plasma concentration, individual animals ([1]; PO 5 mg/kg, 0.5 hr, 5 mg/kg): 2167.46 ng/mL and 1898.77 ng/mL and 1070.15 ng/mL | Plasma concentration, individual animals ([1]; PO 5 mg/kg, 1 hr, 5 mg/kg): 474.33 ng/mL and 433.52 ng/mL | Plasma concentration, individual animals ([1]; PO 5 mg/kg, 2 hr, 5 mg/kg): 331.78 ng/mL and 365.08 ng/mL | Plasma concentration, individual animals ([1]; PO 5 mg/kg, 4 hr, 5 mg/kg): 86.92 ng/mL and 503.47 ng/mL and 59.61 ng/mL | Plasma concentration, individual animals ([1]; PO 5 mg/kg, 6 hr, 5 mg/kg): 110.77 ng/mL and 81.54 ng/mL | Plasma concentration, individual animals ([1]; PO 5 mg/kg, 8 hr, 5 mg/kg): 41.28 ng/mL and 53.22 ng/mL | Plasma concentration, individual animals ([1]; PO 5 mg/kg, 24 hr, below LLOQ considered zero, 5 mg/kg): 0.00 ng/mL and 1.28 ng/mL and 2.31 ng/mL | concentration at 0.08 hr ([1]; male, BALB/c, mouse, plasma, iv, 1 mg/kg, IV 1 mg/kg, 0.08 hr): 2000 ng/mL | concentration at 0.25 hr ([1]; male, BALB/c, mouse, plasma, iv, 1 mg/kg, IV 1 mg/kg, 0.25 hr, read-out: Plasma concentration, Mean): 1020 ng/mL | concentration at 0.25 hr ([1]; male, BALB/c, mouse, plasma, iv, 1 mg/kg, IV 1 mg/kg, 0.25 hr, read-out: Plasma concentration, individual animals): 948 ng/mL | concentration at 0.5 hr ([1]; male, BALB/c, mouse, plasma, iv, 1 mg/kg, IV 1 mg/kg, 0.5 hr, read-out: Plasma concentration, Mean): 915 ng/mL | concentration at 0.5 hr ([1]; male, BALB/c, mouse, plasma, iv, 1 mg/kg, IV 1 mg/kg, 0.5 hr, read-out: Plasma concentration, individual animals): 952 ng/mL | concentration at 1 hr ([1]; male, BALB/c, mouse, plasma, iv, 1 mg/kg, IV 1 mg/kg, 1 hr, read-out: Plasma concentration, Mean): 306 ng/mL | concentration at 2 hr ([1]; male, BALB/c, mouse, plasma, iv, 1 mg/kg, IV 1 mg/kg, 2 hr, read-out: Plasma concentration, Mean): 50.7 ng/mL | concentration at 2 hr ([1]; male, BALB/c, mouse, plasma, iv, 1 mg/kg, IV 1 mg/kg, 2 hr, read-out: Plasma concentration, individual animals): 42.5 ng/mL | concentration at 4 hr ([1]; male, BALB/c, mouse, plasma, iv, 1 mg/kg, IV 1 mg/kg, 4 hr, read-out: Plasma concentration, Mean): 34.7 ng/mL | concentration at 4 hr ([1]; male, BALB/c, mouse, plasma, iv, 1 mg/kg, IV 1 mg/kg, 4 hr, read-out: Plasma concentration, individual animals): 39.2 ng/mL | concentration at 8 hr ([1]; male, BALB/c, mouse, plasma, iv, 1 mg/kg, IV 1 mg/kg, 8 hr, read-out: Plasma concentration, Mean): 14.5 ng/mL | concentration at 24 hr ([1]; male, BALB/c, mouse, plasma, iv, 1 mg/kg, IV 1 mg/kg, 24 hr): 1.23 ng/mL | concentration at 0.25 hr ([1]; male, BALB/c, mouse, plasma, po, 5 mg/kg, PO 5 mg/kg, 0.25 hr, read-out: Plasma concentration, Mean): 1860 ng/mL | concentration at 0.25 hr ([1]; male, BALB/c, mouse, plasma, po, 5 mg/kg, PO 5 mg/kg, 0.25 hr, read-out: Plasma concentration, individual animals): 1690 ng/mL | concentration at 0.5 hr ([1]; male, BALB/c, mouse, plasma, po, 5 mg/kg, PO 5 mg/kg, 0.5 hr, read-out: Plasma concentration, Mean): 1710 ng/mL | concentration at 1 hr ([1]; male, BALB/c, mouse, plasma, po, 5 mg/kg, PO 5 mg/kg, 1 hr, read-out: Plasma concentration, Mean): 457 ng/mL | concentration at 1 hr ([1]; male, BALB/c, mouse, plasma, po, 5 mg/kg, PO 5 mg/kg, 1 hr, read-out: Plasma concentration, individual animals): 462 ng/mL | concentration at 2 hr ([1]; male, BALB/c, mouse, plasma, po, 5 mg/kg, PO 5 mg/kg, 2 hr, read-out: Plasma concentration, Mean): 411 ng/mL | concentration at 2 hr ([1]; male, BALB/c, mouse, plasma, po, 5 mg/kg, PO 5 mg/kg, 2 hr, read-out: Plasma concentration, individual animals): 535 ng/mL | concentration at 4 hr ([1]; male, BALB/c, mouse, plasma, po, 5 mg/kg, PO 5 mg/kg, 4 hr, read-out: Plasma concentration, Mean): 217 ng/mL | concentration at 6 hr ([1]; male, BALB/c, mouse, plasma, po, 5 mg/kg, PO 5 mg/kg, 6 hr, read-out: Plasma concentration, Mean): 91.8 ng/mL | concentration at 6 hr ([1]; male, BALB/c, mouse, plasma, po, 5 mg/kg, PO 5 mg/kg, 6 hr, read-out: Plasma concentration, individual animals): 83.2 ng/mL | concentration at 8 hr ([1]; male, BALB/c, mouse, plasma, po, 5 mg/kg, PO 5 mg/kg, 8 hr, read-out: Plasma concentration, Mean): 45.8 ng/mL | concentration at 8 hr ([1]; male, BALB/c, mouse, plasma, po, 5 mg/kg, PO 5 mg/kg, 8 hr, read-out: Plasma concentration, individual animals): 43 ng/mL | concentration at 24 hr ([1]; male, BALB/c, mouse, plasma, po, 5 mg/kg, PO 5 mg/kg, 24 hr): 1.8 ng/mL | half-life ([1]; male, BALB/c, mouse, plasma, IV 1 mg/kg, terminal elimination half-life, read-out: T1/2 (converted)): 4.24 h | Vd ([1]; male, BALB/c, mouse, plasma, IV 1 mg/kg, read-out: Vss): 1.2 L/kg | Tmax ([1]; male, BALB/c, mouse, plasma, PO 5 mg/kg): 0.25 h | bioavailability ([1]; male, BALB/c, mouse, plasma, PO 5 mg/kg vs IV 1 mg/kg, solution, from AUClast, read-out: % F (oral bioavailability)): 42% | half-life ([1]; male, BALB/c, mouse, plasma, PO 5 mg/kg, read-out: T1/2 (expressed as T1/2Z) (converted)): 3.26 h | AUC(0-inf) [1, 3]: 1490 ng·h/mL | AUC(0-t) [1, 3]: 1480 ng·h/mL | clearance ([1]; male, BALB/c, mouse, IV 1 mg/kg, plasma clearance): 11.2 mL/min/kg | C0 ([1]; male, BALB/c, mouse, IV 1 mg/kg, plasma, read-out: C0 (back extrapolated conc.)): 2750 ng/mL | AUC(0-inf) [1, 4]: 3120 ng·h/mL | AUC(0-t) [1, 4]: 3110 ng·h/mL | Cmax [1, 4]: 1860 ng/mL | Clinical signs [2]: normal and without any clinical signs
